Reference: ChEMBL document CHEMBL2417473, “The importance of hydrogen bonding and aromatic stacking to the affinity and efficacy of cannabinoid receptor CB2 antagonist, 5-(4-chloro-3-methylphenyl)-1-[(4-methylphenyl)methyl]-N-[(1S,2S,4R)-1,3,3-trimethylbicyclo[2.2.1]hept-2-yl]-1H-pyrazole-3-carboxamide (SR144528)” (J Med Chem, 2013)

Target: Cannabinoid receptor 2 (Homo sapiens, UniProt P34972)
Test: Displacement of [3H]CP-55,940 from human CB2 receptor after 1 hr by competitive binding assay

Chain of Cannabinoid receptor 2 (P34972 whole entry): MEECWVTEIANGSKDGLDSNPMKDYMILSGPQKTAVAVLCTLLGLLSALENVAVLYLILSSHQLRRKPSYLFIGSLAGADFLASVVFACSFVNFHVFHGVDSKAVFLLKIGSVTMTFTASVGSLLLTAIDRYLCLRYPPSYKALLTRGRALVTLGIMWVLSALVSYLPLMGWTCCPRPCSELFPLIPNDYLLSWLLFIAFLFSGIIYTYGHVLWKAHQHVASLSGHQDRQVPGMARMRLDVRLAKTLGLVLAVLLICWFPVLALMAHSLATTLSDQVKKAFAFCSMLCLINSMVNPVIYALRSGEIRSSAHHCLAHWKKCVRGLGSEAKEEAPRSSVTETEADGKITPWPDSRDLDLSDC

Question: Which Ki does the source give for `Cc1ccc(Cn2cc(/C=C/[C@@H]3C(C)(C)[C@@H]4CC[C@@]3(C)C4)cc2-c2ccc(Cl)c(C)c2)cc1` here?
Answer: The Ki was 1220 nM.

Question: With `Cc1ccc(Cn2nc(C(=O)N[C@@H]3C[C@@H]4CC[C@@]3(C)C4(C)C)cc2-c2ccc(Cl)c(C)c2)cc1` as the molecule, how does the Ki read?
Answer: Its Ki is 29.1 nM.

Question: `Cc1cc(-c2cc(C(=O)N[C@@H]3C(C)(C)[C@@H]4CC[C@@]3(C)C4)nn2-c2ccccc2)ccc1Cl` was tested. Which Ki did it give?
Answer: The Ki was 94.2 nM.

Question: With `Cc1ccc(Cn2nc(/C=C/[C@@H]3C(C)(C)[C@@H]4CC[C@@]3(C)C4)cc2-c2ccc(Cl)c(C)c2)cc1` (relative stereo) as the molecule, how does the Ki read?
Answer: Its Ki is 527 nM.

Question: `Cc1ccc(Cn2cc(C(=O)N[C@@H]3C(C)(C)[C@@H]4CC[C@@]3(C)C4)cc2-c2ccc(Cl)c(C)c2)cc1` (relative stereo) was tested. Which Ki did it give?
Answer: The Ki was 15.3 nM.
